In one assay the test system is MV4-11. Description: Antiproliferative activity against human MV4-11 cells assessed as reduction in cell viability incubated for 72 hrs by CCK-8 assay. The assay is classed as functional, cell-based. The conditions noted are these: MV4-11, 72 h.
The test system of a further assay is NB-4. The assay is described as follows: Antiproliferative activity against human NB4 cells assessed as reduction in cell viability incubated for 72 hrs by CCK-8 assay. The format is functional, cell-based. Conditions: NB-4, 72 h.
The test system of a further assay is HL-60. Description: Antiproliferative activity against human HL-60 cells assessed as reduction in cell viability incubated for 72 hrs by CCK-8 assay. The assay is classed as functional, cell-based. The conditions noted are these: HL-60, 72 h.
Another assay concerns DOHH-2. Description: Antiproliferative activity against human DOHH-2 cells assessed as reduction in cell viability incubated for 72 hrs by CCK-8 assay. The assay is classed as functional, cell-based. The conditions noted are these: DOHH-2, 72 h.
Another assay concerns Ramos. Description: Antiproliferative activity against human Ramos cells assessed as reduction in cell viability incubated for 72 hrs by CCK-8 assay.
The test system of the next assay is Raji. Description: Antiproliferative activity against human Raji cells assessed as reduction in cell viability incubated for 72 hrs by CCK-8 assay. The assay is classed as functional, cell-based.
The nature of assay [1]: Antiproliferative activity against human MINO cells assessed as reduction in cell viability incubated for 72 hrs by CCK-8 assay.
A further assay has as its system L1210. The assay is described as follows: Antiproliferative activity against mouse L1210 cells assessed as reduction in cell viability incubated for 72 hrs by CCK-8 assay. The format is functional, cell-based. The conditions noted are these: L1210, 72 h.
The subject of assay [2] is Friend leukemia cell line. Description: Antiproliferative activity against mouse Friend leukemia cell line assessed as reduction in cell viability incubated for 72 hrs by CCK-8 assay. The format is functional, cell-based.
In a further assay the test system is BaF3. Description: Antiproliferative activity against mouse BaF3 cells assessed as reduction in cell viability incubated for 72 hrs by CCK-8 assay. Conditions: BaF3, 72 h. The assay is classed as functional, cell-based.
The next assay concerns EL4. The assay is described as follows: Antiproliferative activity against mouse EL4 cells assessed as reduction in cell viability incubated for 72 hrs by CCK-8 assay. The assay is classed as functional, cell-based. Conditions: EL4, 72 h.
The target of assay [3] is Phosphatidylinositol 4,5-bisphosphate 3-kinase catalytic subunit alpha isoform (Homo sapiens, UniProt P42336).
Chain of Phosphatidylinositol 4,5-bisphosphate 3-kinase catalytic subunit alpha isoform (P42336 whole entry, canonical isoform): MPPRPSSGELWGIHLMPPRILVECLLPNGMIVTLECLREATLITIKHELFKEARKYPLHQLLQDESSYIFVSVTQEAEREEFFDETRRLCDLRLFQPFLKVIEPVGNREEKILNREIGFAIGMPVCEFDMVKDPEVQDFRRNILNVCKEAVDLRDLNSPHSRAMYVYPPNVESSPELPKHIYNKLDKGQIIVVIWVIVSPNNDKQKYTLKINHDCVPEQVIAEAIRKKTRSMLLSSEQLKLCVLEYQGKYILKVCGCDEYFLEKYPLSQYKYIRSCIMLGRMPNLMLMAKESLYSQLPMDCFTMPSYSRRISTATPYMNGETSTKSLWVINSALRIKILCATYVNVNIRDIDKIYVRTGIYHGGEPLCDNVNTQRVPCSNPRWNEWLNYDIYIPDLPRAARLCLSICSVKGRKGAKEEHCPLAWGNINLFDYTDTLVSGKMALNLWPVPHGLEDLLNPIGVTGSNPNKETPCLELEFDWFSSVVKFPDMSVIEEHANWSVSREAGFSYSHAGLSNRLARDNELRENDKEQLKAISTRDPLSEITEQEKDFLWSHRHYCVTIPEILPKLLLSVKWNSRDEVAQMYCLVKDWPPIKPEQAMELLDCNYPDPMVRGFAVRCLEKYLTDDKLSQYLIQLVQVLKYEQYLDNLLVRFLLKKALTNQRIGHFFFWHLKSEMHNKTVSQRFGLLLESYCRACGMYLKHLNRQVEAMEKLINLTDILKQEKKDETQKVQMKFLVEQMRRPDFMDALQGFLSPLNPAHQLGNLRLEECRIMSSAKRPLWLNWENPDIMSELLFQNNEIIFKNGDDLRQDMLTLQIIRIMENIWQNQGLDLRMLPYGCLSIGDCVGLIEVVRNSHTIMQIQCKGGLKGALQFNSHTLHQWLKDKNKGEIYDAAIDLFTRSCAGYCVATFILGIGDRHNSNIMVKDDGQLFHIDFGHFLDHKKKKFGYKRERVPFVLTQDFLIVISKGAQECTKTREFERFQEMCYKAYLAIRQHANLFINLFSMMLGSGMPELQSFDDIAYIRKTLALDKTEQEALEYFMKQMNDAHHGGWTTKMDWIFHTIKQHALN
Description: Inhibition of PI3Kalpha (unknown origin) using PIP2 as substrate incubated for 1 hr in presence of ATP by ADP-Glo assay
For another assay, the target named is Histone deacetylase 1 (Homo sapiens, UniProt Q13547).
Chain of Histone deacetylase 1 (Q13547 whole entry): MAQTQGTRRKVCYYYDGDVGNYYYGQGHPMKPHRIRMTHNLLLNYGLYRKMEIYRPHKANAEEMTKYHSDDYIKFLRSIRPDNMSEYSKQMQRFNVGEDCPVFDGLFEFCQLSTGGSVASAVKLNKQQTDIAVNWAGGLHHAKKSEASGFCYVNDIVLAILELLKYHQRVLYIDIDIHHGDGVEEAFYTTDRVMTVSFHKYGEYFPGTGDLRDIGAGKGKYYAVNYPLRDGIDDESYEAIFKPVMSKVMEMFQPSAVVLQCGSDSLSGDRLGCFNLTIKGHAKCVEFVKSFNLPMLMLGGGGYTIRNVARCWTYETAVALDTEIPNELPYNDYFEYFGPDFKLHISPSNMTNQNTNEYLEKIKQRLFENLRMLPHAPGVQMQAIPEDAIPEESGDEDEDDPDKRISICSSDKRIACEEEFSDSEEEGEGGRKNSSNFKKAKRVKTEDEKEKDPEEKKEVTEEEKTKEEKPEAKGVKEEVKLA

pIC50: −log10 of the molar value.

Description for Histone deacetylase 1: Inhibition of C-terminal 6His-FLAG-tagged human recombinant HDAC1 (1 to 482 residues) expressed in Sf9 cells using Ac-peptide as substrate preincubated for 15 mins followed by substrate addition and measured after 1 hr by plate reader analysis

On to `Nc1cc(C(F)(F)F)c(-c2cc(N3CCOCC3)nc(N3CCOCC3)n2)cn1` [BUPARLISIB], for which the pIC50 in the assay on MV4-11 is 6.25; with NB-4, 6.12; in the assay on HL-60, 5.92; in the assay with DOHH-2, 5.85; with Ramos, 5.27; in the assay with Raji, 6.00. The pIC50 in assay [1] was 5.82; with L1210, 6.43; in assay [2], 6.09; in the assay with BaF3, 5.32; in the assay on EL4 it was 6.07.
For `COc1ncc(-c2cc(OCCCC(=O)Nc3ccccc3N)c3ncnc(C)c3c2)cc1NS(=O)(=O)c1ccc(F)cc1F`, the values for the negative logarithm of the IC50 (pIC50) (in the assay on MV4-11; in [3]; at Histone deacetylase 1) were 7.52, 9.64 and 5.33, respectively.
For the molecule `COc1ncc(-c2cc(OCCCCC(=O)Nc3ccccc3N)c3ncnc(C)c3c2)cc1NS(=O)(=O)c1ccc(F)cc1F`, the pIC50 is 7.70 with MV4-11, 9.70 in assay [3] and 5.45 on Histone deacetylase 1.
For `COc1ncc(-c2cc(OCCCCCCCC(=O)Nc3ccccc3N)c3ncnc(C)c3c2)cc1NS(=O)(=O)c1ccc(F)cc1F`, the pIC50 is 7.70 in the assay on MV4-11, 9.55 in assay [3] and 6.28 on Histone deacetylase 1.
Regarding `COc1ncc(-c2cc(OCCCCCCCCC(=O)Nc3ccccc3N)c3ncnc(C)c3c2)cc1NS(=O)(=O)c1ccc(F)cc1F`, the pIC50 with MV4-11 was 8.00; in assay [3], 9.41; against Histone deacetylase 1, 6.60.
With `O=C(CCCCCCC(=O)Nc1ccccc1)NO` [VORINOSTAT], the pIC50 in the assay on BaF3 is 6.10.
With `COc1ncc(-c2cc(OCCCCCC(=O)Nc3ccccc3N)c3ncnc(C)c3c2)cc1NS(=O)(=O)c1ccc(F)cc1F`, the pIC50 in the assay with MV4-11 is 8.00; in assay [3], 9.68; against Histone deacetylase 1, 5.88.
`COc1ncc(-c2cc(OCCOc3ccc(C(=O)Nc4ccccc4N)cc3)c3ncnc(C)c3c2)cc1NS(=O)(=O)c1ccc(F)cc1F`: the pIC50 with MV4-11 is 6.39; in assay [3] it was 9.24; at Histone deacetylase 1, 7.25.
For the molecule `COc1ncc(-c2cc(OCCCOc3ccc(C(=O)Nc4ccccc4N)cc3)c3ncnc(C)c3c2)cc1NS(=O)(=O)c1ccc(F)cc1F`, the results for the pIC50 (with MV4-11; in [3]; against Histone deacetylase 1) were 6.41, 9.41 and 7.02, respectively.
Consider `COc1ncc(-c2cc(OCCCCCCC(=O)NO)c3ncnc(C)c3c2)cc1F`, for which the pIC50 in the assay on MV4-11 was 6.60.
In the case of `COc1ncc(-c2cc(OCCCCCCCCCC(=O)Nc3ccccc3N)c3ncnc(C)c3c2)cc1NS(=O)(=O)c1ccc(F)cc1F`, the pIC50 with MV4-11 was 7.22; in [3], 9.40; against Histone deacetylase 1 it was 5.52.
As to `Nc1ccc(F)cc1NC(=O)c1ccc(CNC(=O)/C=C/c2cccnc2)cc1`, the pIC50 was 6.49 in the assay on MV4-11; 5.72 with NB-4; 5.89 with HL-60; 5.37 in the assay with DOHH-2; less than 5.00 in the assay on Ramos; 5.16 in the assay on Raji. Moreover, the negative logarithm of the IC50 (pIC50) is 5.68 in assay [1]; less than 5.00 with L1210; 6.30 in [2]; 5.82 in the assay with BaF3; 5.28 in the assay on EL4.

(Values after ChEMBL document CHEMBL5537133, “Rational design and optimization of novel 4-methyl quinazoline derivatives as PI3K/HDAC dual inhibitors with benzamide as zinc binding moiety for the treatment of acute myeloid leukemia” (Eur J Med Chem, 2024).)
